System: 967376-340-R-J2-PDC multicell spheroid viability
Test: Anticancer human tumor 967376-340-R-J2-PDC patient-derived colon adenocarcinoma cell line growth inhibition [PI3K]
Conditions: for IC50: curve of first compound; for viability, T/C: stronger effect = lower value; active means viability on the fitted dose curve at most 10% of control; inactive means the rest
Outline: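 Agents were dosed from a top concentration near clinical Cmax (otherwise 10 microM) in half-log decrements, alone or combined with PI3K inhibitors. The spheroids contain tumor cells plus endothelial (HUVEC) and MSC stroma; viability is measured.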

[1] = second compound 0.0316 µM, first compound 0.0316 µM
[2] = second compound 0.0316 µM, first compound 0.1 µM
[3] = second compound 0.0316 µM, first compound 0.316 µM
[4] = second compound 0.0316 µM, first compound 1 µM
[5] = second compound 0.0316 µM, first compound 3.16 µM
[6] = second compound 0.0316 µM, first compound 10 µM
[7] = second compound 0.1 µM, first compound 0.0316 µM
[8] = second compound 0.1 µM, first compound 0.1 µM
[9] = second compound 0.1 µM, first compound 0.316 µM
[10] = second compound 0.1 µM, first compound 1 µM
[11] = second compound 0.1 µM, first compound 3.16 µM
[12] = second compound 0.1 µM, first compound 10 µM
[13] = second compound 0.316 µM, first compound 0.0316 µM
[14] = second compound 0.316 µM, first compound 0.1 µM
[15] = second compound 0.316 µM, first compound 0.316 µM
[16] = second compound 0.316 µM, first compound 1 µM
[17] = second compound 0.316 µM, first compound 3.16 µM
[18] = second compound 0.316 µM, first compound 10 µM
[19] = second compound 1 µM, first compound 0.0316 µM
[20] = second compound 1 µM, first compound 0.1 µM
[21] = second compound 1 µM, first compound 0.316 µM
[22] = second compound 1 µM, first compound 1 µM
[23] = second compound 1 µM, first compound 3.16 µM
[24] = second compound 1 µM, first compound 10 µM
[25] = second compound 3.16 µM, first compound 0.0316 µM
[26] = second compound 3.16 µM, first compound 0.1 µM
[27] = second compound 3.16 µM, first compound 0.316 µM
[28] = second compound 3.16 µM, first compound 1 µM
[29] = second compound 3.16 µM, first compound 3.16 µM
[30] = second compound 3.16 µM, first compound 10 µM
[31] = second compound 10 µM, first compound 0.0316 µM
[32] = second compound 10 µM, first compound 0.1 µM
[33] = second compound 10 µM, first compound 0.316 µM
[34] = second compound 10 µM, first compound 1 µM
[35] = second compound 10 µM, first compound 3.16 µM
[36] = second compound 10 µM, first compound 10 µM
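Further: spheroids exposed to agents for 7 days before read-out.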
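Wherever viability, T/C is given: luminescence used as surrogate of cell viability.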

C#Cc1c(F)ccc2cc(O)cc(-c3ncc4c(N5CC6CCC(C5)N6)nc(OCC56CCCN5CC(F)C6)nc4c3F)c12 (stereo not given) + CC(Nc1ncnc2nc[nH]c12)c1cc2cccc(Cl)c2c(=O)n1-c1ccccc1
inactive: viability, T/C [1] 103% | viability, T/C [2] 113% | viability, T/C [3] 94.2% | viability, T/C [4] 85.8% | viability, T/C [5] 85.5% | viability, T/C [6] 53.8% | viability, T/C [7] 99.8% | viability, T/C [8] 110% | viability, T/C [9] 80.5% | viability, T/C [10] 97.5% | viability, T/C [11] 77% | viability, T/C [12] 88.9% | viability, T/C [13] 104% | viability, T/C [14] 97.2% | viability, T/C [15] 99.7% | viability, T/C [16] 90.6% | viability, T/C [17] 99.5% | viability, T/C [18] 78.8% | viability, T/C [19] 96.5% | viability, T/C [20] 110% | viability, T/C [21] 109% | viability, T/C [22] 93% | viability, T/C [23] 72.8% | viability, T/C [24] 70.8% | viability, T/C [25] 106% | viability, T/C [26] 92.4% | viability, T/C [27] 94.6% | viability, T/C [28] 71.2% | viability, T/C [29] 78.3% | viability, T/C [30] 71.8% | viability, T/C [31] 84.1% | viability, T/C [32] 76.8% | viability, T/C [33] 78.8% | viability, T/C [34] 61.6% | viability, T/C [35] 59.5% | viability, T/C [36] 61.5%
> 10 µM: IC50 (second compound 0.0316 µM) | IC50 (second compound 0.1 µM) | IC50 (second compound 0.316 µM) | IC50 (second compound 1 µM) | IC50 (second compound 3.16 µM) | IC50 (second compound 10 µM)

C=CC(=O)N1CCN(c2nc(=O)n(-c3c(C)ccnc3C(C)C)c3nc(-c4c(O)cccc4F)c(F)cc23)C(C)C1 (stereo not given) + CC(Nc1ncnc2nc[nH]c12)c1cc2cccc(Cl)c2c(=O)n1-c1ccccc1
inactive: viability, T/C [1] 95.8% | viability, T/C [2] 104% | viability, T/C [3] 99.1% | viability, T/C [4] 102% | viability, T/C [5] 96.6% | viability, T/C [6] 108% | viability, T/C [7] 123% | viability, T/C [8] 108% | viability, T/C [9] 97.7% | viability, T/C [10] 94.2% | viability, T/C [11] 106% | viability, T/C [12] 104% | viability, T/C [13] 105% | viability, T/C [14] 107% | viability, T/C [15] 107% | viability, T/C [16] 104% | viability, T/C [17] 86.7% | viability, T/C [18] 94.8% | viability, T/C [19] 107% | viability, T/C [20] 98.3% | viability, T/C [21] 100% | viability, T/C [22] 97.8% | viability, T/C [23] 105% | viability, T/C [24] 76.3% | viability, T/C [25] 79.7% | viability, T/C [26] 91.6% | viability, T/C [27] 81.2% | viability, T/C [28] 98% | viability, T/C [29] 96.2% | viability, T/C [30] 86.6% | viability, T/C [31] 75.7% | viability, T/C [32] 83.9% | viability, T/C [33] 75.4% | viability, T/C [34] 78.7% | viability, T/C [35] 94.4% | viability, T/C [36] 91.9%
> 10 µM: IC50 (second compound 0.0316 µM) | IC50 (second compound 0.1 µM) | IC50 (second compound 0.316 µM) | IC50 (second compound 1 µM) | IC50 (second compound 3.16 µM) | IC50 (second compound 10 µM)

CC(Cn1ccc(-c2ccc(C#N)c(Cl)c2)n1)NC(=O)c1cc(C(C)O)[nH]n1 (stereo not given) + CC(Nc1ncnc2nc[nH]c12)c1cc2cccc(Cl)c2c(=O)n1-c1ccccc1
> 10 µM: IC50 (second compound 0.0316 µM) | IC50 (second compound 0.1 µM) | IC50 (second compound 0.316 µM) | IC50 (second compound 1 µM) | IC50 (second compound 3.16 µM) | IC50 (second compound 10 µM)
inactive: viability, T/C [1] 95.7% | viability, T/C [2] 87.5% | viability, T/C [3] 89.4% | viability, T/C [4] 110% | viability, T/C [5] 87.5% | viability, T/C [6] 91.8% | viability, T/C [7] 117% | viability, T/C [8] 102% | viability, T/C [9] 104% | viability, T/C [10] 94.3% | viability, T/C [11] 81.8% | viability, T/C [12] 85.6% | viability, T/C [13] 112% | viability, T/C [14] 97.3% | viability, T/C [15] 86.7% | viability, T/C [16] 87.5% | viability, T/C [17] 89% | viability, T/C [18] 78.6% | viability, T/C [19] 107% | viability, T/C [20] 83.3% | viability, T/C [21] 91.9% | viability, T/C [22] 83.8% | viability, T/C [23] 83.9% | viability, T/C [24] 82.4% | viability, T/C [25] 95.4% | viability, T/C [26] 103% | viability, T/C [27] 91.5% | viability, T/C [28] 87.5% | viability, T/C [29] 69.2% | viability, T/C [30] 92.5% | viability, T/C [31] 91.5% | viability, T/C [32] 88.6% | viability, T/C [33] 90% | viability, T/C [34] 103% | viability, T/C [35] 83.7% | viability, T/C [36] 80.7%

CC1(C)CCC(Nc2ncc(C(F)(F)F)c(-c3c[nH]c4c(P(C)(C)=O)c(C#N)ccc34)n2)CN1 (stereo not given) + CC(Nc1ncnc2nc[nH]c12)c1cc2cccc(Cl)c2c(=O)n1-c1ccccc1
inactive: viability, T/C [1] 103% | viability, T/C [2] 90.2% | viability, T/C [3] 80.3% | viability, T/C [4] 69.2% | viability, T/C [5] 68.3% | viability, T/C [6] 55.4% | viability, T/C [7] 108% | viability, T/C [8] 92.8% | viability, T/C [9] 79.6% | viability, T/C [10] 75.2% | viability, T/C [11] 76.6% | viability, T/C [12] 55.7% | viability, T/C [13] 83.5% | viability, T/C [14] 91.6% | viability, T/C [15] 93% | viability, T/C [16] 60.9% | viability, T/C [17] 71.4% | viability, T/C [18] 64.3% | viability, T/C [19] 90.6% | viability, T/C [20] 93.5% | viability, T/C [21] 64.1% | viability, T/C [22] 78.1% | viability, T/C [23] 68.2% | viability, T/C [24] 63.9% | viability, T/C [25] 84.6% | viability, T/C [26] 73.6% | viability, T/C [27] 85% | viability, T/C [28] 73.4% | viability, T/C [29] 73% | viability, T/C [30] 62.3% | viability, T/C [31] 72.3% | viability, T/C [32] 73.8% | viability, T/C [33] 70.2% | viability, T/C [34] 63.5% | viability, T/C [35] 56.8% | viability, T/C [36] 39.4%
> 10 µM: IC50 (second compound 0.0316 µM) | IC50 (second compound 0.1 µM) | IC50 (second compound 0.316 µM) | IC50 (second compound 1 µM) | IC50 (second compound 3.16 µM)
4.79 µM: IC50 (second compound 10 µM)

Cn1nccc1Nc1nccc(-c2ccn(C(CO)c3ccc(Cl)c(F)c3)c(=O)c2)n1 (stereo not given) + CC(Nc1ncnc2nc[nH]c12)c1cc2cccc(Cl)c2c(=O)n1-c1ccccc1
> 10 µM: IC50 (second compound 0.0316 µM) | IC50 (second compound 0.1 µM) | IC50 (second compound 0.316 µM) | IC50 (second compound 1 µM) | IC50 (second compound 3.16 µM) | IC50 (second compound 10 µM)
inactive: viability, T/C [1] 97.2% | viability, T/C [2] 115% | viability, T/C [3] 101% | viability, T/C [4] 102% | viability, T/C [5] 101% | viability, T/C [6] 114% | viability, T/C [7] 103% | viability, T/C [8] 105% | viability, T/C [9] 95.9% | viability, T/C [10] 128% | viability, T/C [11] 128% | viability, T/C [12] 106% | viability, T/C [13] 107% | viability, T/C [14] 115% | viability, T/C [15] 114% | viability, T/C [16] 76.1% | viability, T/C [17] 104% | viability, T/C [18] 110% | viability, T/C [19] 96.2% | viability, T/C [20] 93.3% | viability, T/C [21] 87.8% | viability, T/C [22] 89% | viability, T/C [23] 99% | viability, T/C [24] 96.3% | viability, T/C [25] 87.5% | viability, T/C [26] 85.3% | viability, T/C [27] 80.1% | viability, T/C [28] 89.3% | viability, T/C [29] 99.7% | viability, T/C [30] 81.4% | viability, T/C [31] 95.7% | viability, T/C [32] 73.4% | viability, T/C [33] 86.3% | viability, T/C [34] 86.7% | viability, T/C [35] 76.2% | viability, T/C [36] 75.3%

Source: PubChem BioAssay AID1963962 (Molecular Pharmacology Branch, DTP, NCI, 2024)
